Test systems include EKVX NSCLC; MDA-MB-231 breast; COLO 205 colon; UO-31 renal; SR leukemia; SNB-19 CNS; LOX IMVI melanoma; KM12 colon; SF-268 CNS; MDA-MB-435.
What all share (test): DTP human tumour cell line panel, 48 h

The structures appear in SMILES notation.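 Interpolation was linear, between the two tested concentrations surrounding the appropriate level; five concentrations were tested over 48 hours in 96-well plates. GI50 is the concentration that inhibits growth by half. TGI marks complete inhibition of growth.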

By GI50 is commonly meant the concentration giving 50% growth inhibition. The TGI is the concentration giving total growth inhibition. Low values mean more potent growth arrest, high ones less potent growth arrest. Turning to `COc1cc2c(cc1Nc1nc(Nc3ccsc3C(N)=O)c3cc[nH]c3n1)N(C(=O)CN(C)C)CCC2`, the GI50 in the assay with EKVX NSCLC was 0.551 µM; in the assay on MDA-MB-231 breast, 1.01 µM; with COLO 205 colon, below 0.0025 µM; with UO-31 renal, 3.35 µM; in the assay with SR leukemia, 0.0123 µM; in the assay on SNB-19 CNS, 2.58 µM. The GI50 in the assay on LOX IMVI melanoma is 0.58 µM; in the assay on KM12 colon, 0.529 µM; with SF-268 CNS, 1.15 µM; in the assay with MDA-MB-435, 0.0499 µM. In addition, the concentration for total growth inhibition (TGI) in the assay on EKVX NSCLC is 6.35 µM; in the assay on MDA-MB-231 breast, 4.63 µM; in the assay with COLO 205 colon, 0.394 µM; in the assay on UO-31 renal, 7.39 µM; with SR leukemia, 3.44 µM; in the assay on SNB-19 CNS, above 25 µM. In addition, the concentration for total growth inhibition (TGI) came out at 3.66 µM in the assay with LOX IMVI melanoma, 2.66 µM with KM12 colon, 10.6 µM in the assay with SF-268 CNS and 0.489 µM in the assay with MDA-MB-435.

Take `C#Cc1cccc(NC(=O)Nc2cccc(NC(=O)CCl)c2)c1`: the GI50 with EKVX NSCLC is above 82.5 µM; in the assay with MDA-MB-231 breast, 22.9 µM; with COLO 205 colon, 58.7 µM; in the assay with UO-31 renal it was above 82.5 µM; in the assay on SR leukemia, 12.9 µM; with SNB-19 CNS, above 82.5 µM. Also, the GI50 is 13.2 µM with LOX IMVI melanoma, 58.6 µM in the assay with KM12 colon, 25.7 µM in the assay with SF-268 CNS and 24.2 µM in the assay with MDA-MB-435. Further, the concentration for total growth inhibition (TGI) is above 82.5 µM in the assay on EKVX NSCLC; 65.2 µM with MDA-MB-231 breast; above 82.5 µM with COLO 205 colon; above 82.5 µM in the assay with UO-31 renal; above 82.5 µM with SR leukemia; above 82.5 µM in the assay with SNB-19 CNS. The concentration for total growth inhibition (TGI) with LOX IMVI melanoma was 27 µM; in the assay on KM12 colon it was above 82.5 µM; in the assay on SF-268 CNS, above 82.5 µM; in the assay with MDA-MB-435, above 82.5 µM.

Turning to `Oc1c(Br)cc(Br)c2cccnc12`, the GI50 with EKVX NSCLC is 3.45 µM; in the assay with MDA-MB-231 breast it was 4.43 µM; in the assay with COLO 205 colon, 3.79 µM; with UO-31 renal, 2.56 µM; in the assay with SR leukemia it was 3.07 µM; with SNB-19 CNS it was 3.99 µM. The GI50 in the assay on LOX IMVI melanoma was 2.94 µM; in the assay on KM12 colon, 4.17 µM; in the assay on SF-268 CNS, 3.36 µM; in the assay with MDA-MB-435, 3.62 µM. Further, the TGI with EKVX NSCLC is 19.1 µM; in the assay on MDA-MB-231 breast it was 28.9 µM; in the assay with COLO 205 colon, 25 µM; with UO-31 renal it was 16.5 µM; in the assay on SR leukemia, 13.7 µM; in the assay on SNB-19 CNS, above 100 µM. The concentration for total growth inhibition (TGI) was 14.1 µM with LOX IMVI melanoma, 23.4 µM in the assay on KM12 colon, above 100 µM with SF-268 CNS and above 100 µM in the assay with MDA-MB-435.

As for `C=C1C(=O)O[C@H]2[C@H]1CC/C(Cn1cc(CNC(=O)c3cc4ccccc4[nH]3)nn1)=C\CC[C@@]1(C)O[C@@H]21`, the GI50 in the assay on EKVX NSCLC was 13.2 µM; in the assay on MDA-MB-231 breast, 1.97 µM; in the assay with COLO 205 colon, 2.13 µM; with UO-31 renal, 10.4 µM; with SR leukemia it was 2.69 µM; in the assay on SNB-19 CNS, 7.44 µM. Moreover, the GI50 is 1.82 µM with LOX IMVI melanoma, 11.4 µM in the assay with KM12 colon, 7.26 µM in the assay with SF-268 CNS and 2.82 µM in the assay on MDA-MB-435. Also, the TGI with EKVX NSCLC turned out to be 30.2 µM; in the assay on MDA-MB-231 breast it was 3.78 µM; with COLO 205 colon, 4.48 µM; with UO-31 renal, 22.1 µM; in the assay on SR leukemia, 25.7 µM; with SNB-19 CNS, 20.4 µM. Further, the TGI in the assay with LOX IMVI melanoma stood at 4.06 µM; in the assay with KM12 colon it was 26.7 µM; in the assay on SF-268 CNS, 22.5 µM; in the assay with MDA-MB-435, 9.7 µM.

Regarding `C=CC(=O)N1CC[C@@H](Oc2nc(Nc3ccc(N4CCC(N5CCN(C)CC5)CC4)cc3)c(C(N)=O)nc2CC)C1`, the GI50 in the assay on EKVX NSCLC, in the assay on MDA-MB-231 breast, with COLO 205 colon, in the assay on UO-31 renal, in the assay on SR leukemia and in the assay with SNB-19 CNS was above 100 µM in each case. For the same compound, the GI50 in the assay with LOX IMVI melanoma, in the assay on KM12 colon, with SF-268 CNS and with MDA-MB-435 was above 100 µM throughout. Besides, the TGI in the assay on EKVX NSCLC, in the assay on MDA-MB-231 breast, in the assay with COLO 205 colon, in the assay with UO-31 renal, with SR leukemia and with SNB-19 CNS was above 100 µM throughout. Moreover, the total growth inhibition concentration (TGI) with LOX IMVI melanoma, with KM12 colon, in the assay on SF-268 CNS and in the assay on MDA-MB-435 was above 100 µM throughout.

In the case of `Cn1c(N)cc(=O)nc1N`, the TGI with EKVX NSCLC, with MDA-MB-231 breast, with COLO 205 colon, in the assay with UO-31 renal, in the assay on SR leukemia and in the assay on SNB-19 CNS was above 100 µM in each case. In addition, the TGI in the assay on LOX IMVI melanoma, in the assay with KM12 colon, with SF-268 CNS and with MDA-MB-435 was above 100 µM in each case.

As for `CCN(CC)CCC(CNc1c2ccc(Cl)cc2nc2ccc(OC)cc12)c1ccccc1` (stereo not given), the GI50 was 2.32 µM in the assay with EKVX NSCLC; 1.01 µM in the assay with MDA-MB-231 breast; 1.09 µM in the assay with COLO 205 colon; 1.3 µM in the assay on UO-31 renal; 0.323 µM in the assay on SR leukemia; 1.36 µM in the assay on SNB-19 CNS. In addition, the GI50 with LOX IMVI melanoma was 1 µM; in the assay with KM12 colon, 0.996 µM; in the assay on SF-268 CNS, 1.33 µM; in the assay with MDA-MB-435 it was 1.5 µM. Moreover, the concentration for total growth inhibition (TGI) was 8.3 µM in the assay on EKVX NSCLC; 2.73 µM in the assay with MDA-MB-231 breast; 2.28 µM in the assay with COLO 205 colon; 3.27 µM with UO-31 renal; 1.18 µM in the assay with SR leukemia; 4.2 µM in the assay with SNB-19 CNS. The TGI in the assay on LOX IMVI melanoma is 2.39 µM; with KM12 colon, 4.47 µM; in the assay on SF-268 CNS it was 3.8 µM; with MDA-MB-435, 3.09 µM.

Consider `CN(C)c1ccc(/C=C/C(=O)c2ccc(Nc3nc(Nc4ccc(F)cc4)nc(Nc4ccc(Cl)cc4)n3)cc2)cc1`, for which the GI50 in the assay on EKVX NSCLC is 8.21 µM; with MDA-MB-231 breast it was 9.56 µM; with COLO 205 colon, 4.26 µM; with UO-31 renal, 3.22 µM; in the assay on SR leukemia, 1.06 µM; in the assay on SNB-19 CNS it was 17.1 µM. Also, the GI50 is 8.93 µM in the assay with LOX IMVI melanoma, 5.75 µM with KM12 colon, 6.75 µM in the assay with SF-268 CNS and 3.03 µM in the assay on MDA-MB-435. The TGI in the assay on EKVX NSCLC is above 100 µM; in the assay with MDA-MB-231 breast it was 73 µM; in the assay on COLO 205 colon, 18.7 µM; in the assay with UO-31 renal, 21.4 µM; with SR leukemia, 3.67 µM; in the assay with SNB-19 CNS, above 100 µM. Besides, the total growth inhibition concentration (TGI) with LOX IMVI melanoma amounted to 47.2 µM; with KM12 colon, 23.2 µM; in the assay with SF-268 CNS it was 63.6 µM; in the assay with MDA-MB-435, 17.3 µM.

These data come from PubChem BioAssay (NCI).
